Reference: patent US7781453B2, “Aminopyridine-derivatives” (Altana Pharma AG, priority 2003, dated 2010)

`Cc1cc(N)nc(CCc2nc3cccnc3[nH]2)c1` [compound 1, 2-[2-(2-Amino-4-methylpyridin-6-yl)ethyl]-3H-imidazo[4,5-b]pyridine] showed a melting point of 45 to 47 °C. `Cc1ccc(-c2cnc3[nH]c(CCc4cc(C)cc(N)n4)nc3c2)cc1.Cl` gave a melting point of 186 °C. Molecule `Cc1cc(N)nc(CCc2nc3cc(-c4ccc(Cl)cc4)cnc3[nH]2)c1.Cl` has a melting point of 228 to 230 °C. `Cc1cc(N)nc(CCc2nc3cc(-c4ccccc4)cnc3[nH]2)c1` [compound 5, 2-[2-(2-Amino-4-methylpyridin-6-yl)ethyl]-6-phenyl-3H-imidazo[4,5-b]pyridine] showed a melting point of 230 °C. Molecule `Cc1cc(N)nc(CCc2nc3cc(-c4cccc(O)c4)cnc3[nH]2)c1` [compound 16, 3-{2-[2-(6-Amino-4-methyl-pyridin-2-yl)-ethyl]-3H-imidazo[4,5-b]pyridin-6-yl}-phenol] has a melting point of 162 °C. Molecule `Cc1cc(N)nc(CCc2nc3cc(-c4ccc(S(=O)(=O)N5CCCCC5)cc4)cnc3[nH]2)c1` [compound 19, 4-Methyl-6-(2-{6-[4-(piperidine-1-sulfonyl)-phenyl]-3H-imidazo[4,5-b]pyridin-2-yl}-ethyl)-pyridin-2-ylamine] has a melting point of 233 °C. `Cc1cc(N)nc(CCc2nc3cc(-c4ccc(OCc5ccccc5)cc4)cnc3[nH]2)c1` [compound 15, 6-{2-[6-(4-Benzyloxy-phenyl)-3H-imidazo[4,5-b]pyridin-2-yl]-ethyl}-4-methyl-pyridin-2-ylamine] showed a melting point of 225 °C. Molecule `Cc1cc(N)nc(CCc2nc3cc(-c4cc(Cl)cc(Cl)c4)cnc3[nH]2)c1` [compound 14, 6-{2-[6-(3,5-Dichloro-phenyl)-3H-imidazo[4,5-b]pyridin-2-yl]-ethyl}-4-methyl-pyridin-2-ylamine] has a melting point of 224 °C. With `Cc1cc(N)nc(CCc2nc3cc(-c4ccc(S(=O)(=O)N5CCCC5)cc4)cnc3[nH]2)c1` [compound 18, 4-Methyl-6-(2-{6-[4-(pyrrolidine-1-sulfonyl)-phenyl]-3H-imidazo[4,5-b]pyridin-2-yl}-ethyl)-pyridin-2-ylamine] the melting point was 171 °C. For `Cc1cc(N)nc(CCc2nc3cc(-c4ccc(C#N)cc4)cnc3[nH]2)c1` [compound 6, 2-[2-(2-Amino-4-methylpyridin-6-yl)ethyl]-6-(4-cyano-phenyl)-3H-imidazo[4,5-b]pyridine], the melting point was 218 °C. In the case of `Cc1cc(N)nc(CCc2nc3cc(-c4ccc(S(=O)(=O)N5CCN(C)CC5)cc4)cnc3[nH]2)c1` [compound 21, 4-Methyl-6-(2-{6-[4-(4-methyl-piperazine-1-sulfonyl)-phenyl]-3H-imidazo[4,5-b]pyridin-2-yl}-ethyl)-pyridin-2-ylamine], the melting point is reported as 135 °C. With `Cc1cc(N)nc(CCc2nc3cccnc3[nH]2)c1.Cl` the melting point was 136 °C. Molecule `Cc1cc(N)nc(CCc2nc3cc(-c4cccc(OCc5ccccc5)c4)cnc3[nH]2)c1` [compound 13, 6-{2-[6-(3-Benzyloxy-phenyl)-3H-imidazo[4,5-b]pyridin-2-yl]-ethyl}-4-methyl-pyridin-2-ylamine] has a melting point of 181 °C. With `CC(=O)O.Cc1cc(N)nc(CCc2nc3cccnc3[nH]2)c1` the melting point was 54 °C. `Cc1cc(N)nc(CC(C)c2nc3cccnc3[nH]2)c1` (racemic) [compound 2, (R,S)-2-[3-(2-Amino-4-methylpyridin-6-yl)prop-2-yl]-3H-imidazo[4,5-b]pyridine] gave a melting point of 48 °C. With `Cc1cc(N)nc(CCc2nc3cc(-c4ccc(S(=O)(=O)N5CCC5)cc4)cnc3[nH]2)c1` [compound 17, 6-(2-{6-[4-(Azetidine-1-sulfonyl)-phenyl]-3H-imidazo[4,5-b]pyridin-2-yl}-ethyl)-4-methyl-pyridin-2-ylamine] the melting point was 168 °C. `Cc1cc(N)nc(CCc2nc3cc(Br)cnc3[nH]2)c1` [compound 4, 2-[2-(2-Amino-4-methylpyridin-6-yl)ethyl]-6-bromo-3H-imidazo[4,5-b]pyridine] showed a melting point of 216 °C.
